Measured values reported in patent publication US11407711B2, “Benzamide compound and use thereof” (METISA BIOTECHNOLOGY CO., LTD., priority 2018, dated 2022).
Like-named read-outs stand apart in the source and are kept apart here.

How the values were obtained:
Type in all cases: in vivo
armyworm = assay: Insecticidal activity against armyworm (Airbrush spray on maize blade segments); conditions: 72 h, read-out: fatality rate against armyworm
Description: (§1) The compound to be tested was dissolved by a mixed solvent of acetone/methanol (1:1), and then diluted by water containing 0.1% (wt) Tween 80 to the required concentration.
(§2) An Airbrush spray method was adopted for the determination of the activity, with armyworm, Plutella xylostella and Chilo suppressalis as targets.
Determination method: maize blades were cut into 2 cm (length) segments; with the pressure of Airbrush spray being 10 psi (about 0.7 kg/cm^2), both sides of each blade segment were sprayed with the amount of 0.5 ml. After dried in the shade, each segment was inoculated with 10 3rd-instar larvaes, 3 repeats for each segment. And then, the treated segments were put into an observation room (25° C., relative humidity: 60-70%) for cultivation; the number of the survivals was surveyed 1 d, 2 d and 3 d after administration, and then the death rate was calculated.

Chilo suppressalis = assay: Insecticidal activity against Chilo suppressalis (spray on rice seedlings, stems fed to larvae); conditions: for pest or weed control at 4 µg/mL / pest or weed control at 40 µg/mL / pest or weed control at 1 µg/mL: Chilo suppressalis, 72 h, read-out: fatality rate against Chilo suppressalis; for Fatality rate (%, 3 d after administration) 5 mg/L: Table 77, 5 mg/L
Description: as §1, §2
Determination method: 1) preparation of rice seedlings: rice was cultivated in small plastic cups (diameter: 4.5 cm and height: 4 cm) at a constant temperature room (temperature: 26-28° C., relative humidity: 60-80% around and illumination: 16 hL:8 hD), after the rice grew to a 4-5 leaf stage, vigorous and uniform-growth rice seedlings were selected and treated with an insecticide, 3 repeats for each treatment. 2) Preparation of pests for test: 3rd-instar larvaes of Chilo suppressalis fed continuously in the room. 3) Inoculation of pests on rice stems by spray. The whole plants of the rice seedlings were sprayed by a spray method uniformly, with the dose of 15 ml for each treatment. The blank control was treated first, and the above operation was repeated in an order of lower to higher test concentration. After sprayed, rice seedlings were placed in the shade to dry the insecticide liquor, and then stalks about 5 cm above the basal part of the stems were cut to be fed to the pests for test. Glass petri dishes (diameter: […]) were prepared, cushioned by filter paper at the bottom thereof, and subjected to water addition for moisturizing; about 20 pieces of rice stems were put in each dish and inoculated with 10 larvaes; then the petri dishes were closed by non-woven fabrics and placed in a constant temperature room for culture. The number of survivals was surveyed 3 d after administration.

Plutella xylostella = assay: Insecticidal activity against Plutella xylostella (Airbrush spray on cabbage leaf discs); conditions: for pest or weed control at 10 µg/mL / pest or weed control at 1 µg/mL / pest or weed control at 0.5 µg/mL / pest or weed control at 0.05 µg/mL: Plutella xylostella, foliar, 72 h; for Fatality rate (%, 3 d after administration) 5 mg/L: Table 72, 5 mg/L; for pest or weed control at 0.05 µg/mL: read-out: fatality rate against Plutella xylostella, 0.05 mg/L, 3 d after administration; for Fatality rate (%, 3 d after administration) 0.05 mg/L: Table 74, 0.05 mg/L
Description: as §1, §2
Determination method: cabbage blades were punched into 2 cm (diameter) leaf discs by a puncher; with the pressure of Airbrush spray being 10 psi (about 0.7 kg/cm^2), both sides of each leaf disc were sprayed with the amount of 0.5 ml. After dried in the shade, each leaf disc was inoculated with 10 3rd-instar larvaes, 3 repeats for each leaf disc. And then, the treated leaf discs were put into an observation room (25° C., relative humidity: 60-70%) for cultivation; the number of the survivals was surveyed 1 d, 2 d and 3 d after administration, and then the death rate was calculated.

[1] = read-out: Fatality rate (%, 3 d after administration) 10 mg/L, Table 71, 10 mg/L, 3 d after administration
[2] = read-out: fatality rate against Plutella xylostella, 1 mg/L, 3 d after administration
[3] = 0.5 mg/L, 3 d after administration, 3rd-instar larvae
[4] = 40 mg/L, survivals surveyed 3 d after administration
[5] = 1 mg/L, 3 d after administration, read-out: fatality rate against Plutella xylostella
[6] = Table 71, 10 mg/L, 3 d after administration, read-out: Fatality rate (%, 3 d after administration) 10 mg/L
[7] = 0.1 mg/L, 3 d after administration, 3rd-instar larvae
[8] = 4 mg/L, survivals surveyed 3 d after administration
[9] = Table 77, 1.25 mg/L, 3 d after administration
[10] = Table 77, 2.5 mg/L, 3 d after administration
[11] = read-out: Fatality rate (%, 3 d after administration) 0.5 mg/L, Table 73, 0.5 mg/L, 3 d after administration
[12] = read-out: Fatality rate (%, 3 d after administration) 1 mg/L, Table 73, 1 mg/L, 3 d after administration
[13] = read-out: fatality rate against Plutella xylostella, 0.5 mg/L, 3 d after administration
[14] = Table 75, fast-acting efficacy, dose 0.5 mg/L
[15] = Table 75, fast-acting efficacy, dose 0.5 mg/L, 3 d after administration
[16] = read-out: Fatality rate (%, 3 d after administration) 0.5 mg/L, Table 74, 0.5 mg/L, 3 d after administration
[17] = Table 76, fast-acting efficacy, dose 0.05 mg/L

Row | Compound | pest or weed control at 0.1 µg/mL (armyworm) [%] | pest or weed control at 0.5 µg/mL (armyworm) [%] | pest or weed control at 4 µg/mL (Chilo suppressalis) [%] | pest or weed control at 40 µg/mL (Chilo suppressalis) [%] | pest or weed control at 10 µg/mL (Plutella xylostella; [1]) [%] | pest or weed control at 1 µg/mL (Plutella xylostella; [2]) [%] | pest or weed control at 0.5 µg/mL (armyworm; [3]) [%] | pest or weed control at 40 µg/mL (Chilo suppressalis; [4]) [%] | pest or weed control at 1 µg/mL (Plutella xylostella; [5]) [%] | pest or weed control at 10 µg/mL (Plutella xylostella; [6]) [%] | pest or weed control at 0.5 µg/mL (Plutella xylostella; [13]) [%] | other results
1 | N#CCN(C(=O)c1ccccc1)c1cccc(C(=O)Nc2c(Cl)cc(C(F)(C(F)(F)F)C(F)(F)F)cc2Cl)c1F [Compound 3.321] | ≥ 90 | ≥ 90 | ≥ 90 | ≥ 90 | 100 | ≥ 90 |  |  |  |  |  | 
2 | Cc1cc(C(F)(C(F)(F)F)C(F)(F)F)cc(Br)c1N(CC#N)C(=O)c1cccc(NC(=O)c2ccccc2)c1F [Compound 20.321] |  |  |  |  |  |  | ≥ 90 | ≥ 90 | ≥ 90 | 100 |  | pest or weed control at 1 µg/mL (Plutella xylostella; Table 72, 1 mg/L, 3 d after administration, read-out: Fatality rate (%, 3 d after administration) 1 mg/L): 93.9%; Fatality rate (%, 3 d after administration) 5 mg/L (Plutella xylostella; 3 d after administration): 100%
3 | N#CCN(C(=O)c1ccc(F)cc1)c1cccc(C(=O)Nc2c(Br)cc(C(F)(C(F)(F)F)C(F)(F)F)cc2Br)c1F [Compound 2.7] |  |  |  |  |  |  | ≥ 90 | ≥ 90 | ≥ 90 | 100 |  | pest or weed control at 0.05 µg/mL (armyworm; 0.05 mg/L, 3 d after administration, 3rd-instar larvae): ≥ 90%; pest or weed control at 0.1 µg/mL (armyworm; [7]): ≥ 90%; pest or weed control at 1 µg/mL (Chilo suppressalis; 1 mg/L, survivals surveyed 3 d after administration): ≥ 90%; pest or weed control at 4 µg/mL (Chilo suppressalis; [8]): ≥ 90%; pest or weed control at 0.5 µg/mL (Plutella xylostella; 0.5 mg/L, 3 d after administration, read-out: fatality rate against Plutella xylostella): ≥ 90%; pest or weed control at 0.5 µg/mL (Plutella xylostella; Table 73, 0.5 mg/L, 3 d after administration, read-out: Fatality rate (%, 3 d after administration) 0.5 mg/L): 100%; pest or weed control at 1 µg/mL (Plutella xylostella; Table 73, 1 mg/L, 3 d after administration, read-out: Fatality rate (%, 3 d after administration) 1 mg/L): 100%
4 | N#CCN(C(=O)c1ccccc1)c1cccc(C(=O)Nc2c(Br)cc(C(F)(C(F)(F)F)C(F)(F)F)cc2Br)c1F [Compound 2.321] | ≥ 90 | ≥ 90 | ≥ 90 | ≥ 90 | 100 | ≥ 90 |  |  |  |  | ≥ 90 | pest or weed control at 0.05 µg/mL (armyworm): ≥ 90%; pest or weed control at 1 µg/mL (Chilo suppressalis): ≥ 90%; Fatality rate (%, 3 d after administration) 1.25 mg/L (Chilo suppressalis; [9]): 95.5%; Fatality rate (%, 3 d after administration) 2.5 mg/L (Chilo suppressalis; [10]): 100%; Fatality rate (%, 3 d after administration) 5 mg/L (Chilo suppressalis; 3 d after administration): 100%; pest or weed control at 0.5 µg/mL (Plutella xylostella; [11]): 100%; pest or weed control at 1 µg/mL (Plutella xylostella; [12]): 100%; Fatality rate (%) 1 d after administration (Plutella xylostella; [14]): 80%; Fatality rate (%) 2 d after administration (Plutella xylostella; [14]): 95%; Fatality rate (%) 3 d after administration (Plutella xylostella; [15]): 100%
5 | Cc1cc(C(F)(C(F)(F)F)C(F)(F)F)cc(Br)c1NC(=O)c1cccc(N(CC#N)C(=O)c2ccccc2)c1F [Compound 6.321] |  | ≥ 90 |  | ≥ 90 | 100 | ≥ 90 |  |  |  |  |  | pest or weed control at 1 µg/mL (Plutella xylostella; read-out: Fatality rate (%, 3 d after administration) 1 mg/L, Table 72, 1 mg/L, 3 d after administration): 98.5%; Fatality rate (%, 3 d after administration) 5 mg/L (Plutella xylostella; 3 d after administration): 100%
6 | N#CCN(C(=O)c1ccccc1)c1cccc(C(=O)Nc2c(Cl)cc(C(F)(C(F)(F)F)C(F)(F)F)cc2Br)c1F [Compound 7.321] | ≥ 90 | ≥ 90 | ≥ 90 | ≥ 90 | 100 | ≥ 90 |  |  |  |  |  | 
7 | N#CCN(C(=O)c1ccccc1)c1cccc(C(=O)Nc2c(Br)cc(C(F)(C(F)(F)F)C(F)(F)F)cc2C(F)(F)F)c1F [Compound 9.321] | ≥ 90 | ≥ 90 | ≥ 90 | ≥ 90 | 100 | ≥ 90 |  |  |  |  | ≥ 90 | pest or weed control at 0.05 µg/mL (armyworm): ≥ 90%; pest or weed control at 1 µg/mL (Chilo suppressalis): ≥ 90%; Fatality rate (%, 3 d after administration) 0.625 mg/L (Chilo suppressalis; Table 78, 0.625 mg/L, 3 d after administration): 98%; Fatality rate (%, 3 d after administration) 1.25 mg/L (Chilo suppressalis; Table 78, 1.25 mg/L, 3 d after administration): 100%; Fatality rate (%, 3 d after administration) 2.5 mg/L (Chilo suppressalis; Table 78, 2.5 mg/L, 3 d after administration): 100%; pest or weed control at 0.5 µg/mL (Plutella xylostella; [16]): 100%; pest or weed control at 0.05 µg/mL (Plutella xylostella): ≥ 90%; Fatality rate (%, 3 d after administration) 0.05 mg/L (Plutella xylostella; 3 d after administration): 100%; Fatality rate (%) 1 d after administration (Plutella xylostella; [17]): 70%; Fatality rate (%) 2 d after administration (Plutella xylostella; [17]): 95%; Fatality rate (%) 3 d after administration (Plutella xylostella; Table 76, fast-acting efficacy, dose 0.05 mg/L, 3 d after administration): 100%
8 | N#CCN(C(=O)c1cccc(NC(=O)c2ccccc2)c1F)c1c(Cl)cc(C(F)(C(F)(F)F)C(F)(F)F)cc1Br [Compound 21.321] |  |  |  |  |  |  | ≥ 90 | ≥ 90 | ≥ 90 | 100 |  | pest or weed control at 0.1 µg/mL (armyworm; [7]): ≥ 90%; pest or weed control at 4 µg/mL (Chilo suppressalis; [8]): ≥ 90%
9 | N#CCN(C(=O)c1cccc(NC(=O)c2ccccc2)c1F)c1c(Br)cc(C(F)(C(F)(F)F)C(F)(F)F)cc1Br [Compound 16.321] | ≥ 90 | ≥ 90 | ≥ 90 | ≥ 90 | 100 | ≥ 90 |  |  |  |  | ≥ 90 | pest or weed control at 0.5 µg/mL (Plutella xylostella; [11]): 100%; pest or weed control at 1 µg/mL (Plutella xylostella; [12]): 100%
10 | CN(C(=O)c1ccccc1)c1cccc(C(=O)N(CC#N)c2c(Br)cc(C(F)(C(F)(F)F)C(F)(F)F)cc2Br)c1F [Compound 30.321] | ≥ 90 | ≥ 90 | ≥ 90 | ≥ 90 | 100 | ≥ 90 |  |  |  |  | ≥ 90 | pest or weed control at 0.05 µg/mL (armyworm): ≥ 90%; pest or weed control at 1 µg/mL (Chilo suppressalis): ≥ 90%; Fatality rate (%, 3 d after administration) 1.25 mg/L (Chilo suppressalis; [9]): 93.5%; Fatality rate (%, 3 d after administration) 2.5 mg/L (Chilo suppressalis; [10]): 100%; Fatality rate (%, 3 d after administration) 5 mg/L (Chilo suppressalis; 3 d after administration): 100%; pest or weed control at 0.5 µg/mL (Plutella xylostella; [11]): 100%; pest or weed control at 0.5 µg/mL (Plutella xylostella; [16]): 100%; pest or weed control at 1 µg/mL (Plutella xylostella; [12]): 100%; pest or weed control at 0.05 µg/mL (Plutella xylostella): ≥ 90%; Fatality rate (%, 3 d after administration) 0.05 mg/L (Plutella xylostella; 3 d after administration): 100%; Fatality rate (%) 1 d after administration (Plutella xylostella; [14]): 90%; Fatality rate (%) 2 d after administration (Plutella xylostella; [14]): 100%; Fatality rate (%) 3 d after administration (Plutella xylostella; [15]): 100%
11 | N#CCN(C(=O)c1cccc(NC(=O)c2ccccc2)c1F)c1c(Cl)cc(C(F)(C(F)(F)F)C(F)(F)F)cc1Cl [Compound 17.321] |  |  |  |  |  |  | ≥ 90 | ≥ 90 | ≥ 90 | 100 |  | pest or weed control at 0.1 µg/mL (armyworm; [7]): ≥ 90%; pest or weed control at 4 µg/mL (Chilo suppressalis; [8]): ≥ 90%
